Assay results: ChEMBL document CHEMBL5149985, “Discovery of cytotoxic natural products from Red Sea sponges: Structure and synthesis” (Eur J Med Chem, 2021)
Counter-ions that a name gives are not always drawn. Values belong to the compound of their own block, whether it stands above or below them.

Legend:
MCF7 [1] = test: Anticancer activity against human MCF7 cells assessed as inhibition of cell growth incubated for 72 hrs by SRB assay; format: functional, cell-based; conditions: MCF7, 72 h
HepG2 [2] = test: Anticancer activity against human HepG2 cells assessed as inhibition of cell growth incubated for 72 hrs by SRB assay; format: functional, cell-based; conditions: HepG2, 72 h
HCT-116 [3] = test: Anticancer activity against human HCT-116 cells assessed as inhibition of cell growth incubated for 72 hrs by SRB assay; format: functional, cell-based; conditions: HCT-116, 72 h
HCT-116 [4] = test: cells; conditions: Homo sapiens
Description: Anticancer activity against human HCT-116 cells assessed as inhibition of cell growth by MTT assay

HepG2 [5] = test: cells; conditions: Homo sapiens
Description: Anticancer activity against human HepG2 cells assessed as inhibition of cell growth by MTT assay

P388 [6] = test: Anticancer activity against mouse P388 cells assessed as reduction in cell growth; format: functional, cell-based
MCF7 [7] = test: Anticancer activity against human MCF7 cells assessed as inhibition of cell growth incubated for 72 hrs by MTT assay; format: functional, cell-based; conditions: MCF7, 72 h
MDA-MB-231 [8] = test: Anticancer activity against human MDA-MB-231 cells assessed as inhibition of cell growth incubated for 72 hrs by MTT assay; format: functional, cell-based; conditions: MDA-MB-231, 72 h
[9] = Inhibition of actin (unknown origin) polymerization at 100 nM incubated for 20 mins in presence of ATP by ELISA analysis relative to control; conditions: Homo sapiens
Homo sapiens = organism: Homo sapiens; test: Inhibition of actin (unknown origin) polymerization at 1 uM incubated for 20 mins in presence of ATP by ELISA analysis relative to control
[10] = Inhibition of actin (unknown origin) polymerization incubated for 20 mins in presence of ATP by ELISA analysis; set-up: species or system Homo sapiens
P388 [11] = test: Anticancer activity against mouse P388 cells assessed as cell growth inhibition; format: functional, cell-based
A549 = test: Anticancer activity against human A549 cells assessed as cell growth inhibition; format: functional, cell-based
HT-29 = test: Anticancer activity against human HT-29 cells assessed as cell growth inhibition; format: functional, cell-based
MCF7 [12] = test: Anticancer activity against human MCF7 cells assessed as inhibition of cell growth; format: functional, cell-based
HepG2 [13] = test: Anticancer activity against human HepG2 cells assessed as inhibition of cell growth; format: functional, cell-based
MCF7 [14] = test: Anticancer activity against human MCF7 cells assessed as inhibition of cell growth by MTT assay; format: functional, cell-based
MDA-MB-231 [15] = test: Anticancer activity against human MDA-MB-231 cells assessed as cell viability measured after 24 hrs by MTT assay; format: functional, cell-based; conditions: MDA-MB-231, 24 h

IC50 (MCF7 [1]): 24000 nM | IC50 (HepG2 [2]): 19200 nM | IC50 (HCT-116 [3]): 26100 nM
Structure (SMILES): CC(=O)O[C@H]1C[C@H]2[C@]3(C)CC[C@H]4C(C)(C)CCC[C@]4(C)[C@H]3C[C@@H](O)[C@]2(C)C2=C1COC2=O [SESTERSTATIN 7]

IC50 (HCT-116 [4]): 1.8 nM | IC50 (HepG2 [5]): 4.4 nM
Structure (SMILES): CC(=O)O[C@H]1C[C@H]2[C@@](C)(CC[C@H]3C(C)(C)CCC[C@]23C)[C@@H]2CC=C(C(C)=O)C[C@]21C

IC50 (MCF7 [14]): 2.4 nM | IC50 (HCT-116 [4]): 0.6 nM | IC50 (HepG2 [5]): 4.7 nM
Structure (SMILES): CC(=O)O[C@H]1C[C@@H]2[C@@]3(C)CCCC(C)(C)[C@@H]3CC[C@@]2(C)[C@@H]2CC=C(C(C)=O)[C@@H]3[C@H](O)C[C@@]132

IC50 (P388 [6]): 3.6 nM
Structure (SMILES): CC1=CCC[C@H]2[C@](C)(CC3=C(O)C(=O)C=C(O)C3=O)[C@@H](C)CC[C@]12C

IC50 (MCF7 [1]): 30700 nM | IC50 (HepG2 [2]): 17300 nM | IC50 (HCT-116 [3]): 14400 nM
Structure (SMILES): CC(=O)O[C@@H]1C[C@@H]2[C@@]3(C)CCCC(C)(C)[C@@H]3CC[C@@]2(C)[C@@H]2CCC3=C(C(=O)OC3)[C@@]12C

IC50 (MDA-MB-231 [15]): 43400 nM
Structure (SMILES): CCSc1ccc(/C=C2\NC(=O)NC2=O)cc1

IC50 (MCF7 [1]): 32600 nM | IC50 (HepG2 [2]): 21800 nM | IC50 (HCT-116 [3]): 57500 nM
Structure (SMILES): CC(=O)O[C@@H]1C[C@@H]2[C@@]3(C)CCCC(C)(C)[C@@H]3CC[C@@]2(C)[C@@H]2C[C@H](O)C3=C([C@H](O)OC3=O)[C@@]12C

IC50 (MCF7 [1]): 55400 nM | IC50 (HepG2 [2]): 25400 nM | IC50 (HCT-116 [3]): 26500 nM
Structure (SMILES): CO[C@H]1NC(=O)C2=C1[C@H](O)C[C@H]1[C@]3(C)CC[C@H]4C(C)(C)CCC[C@]4(C)[C@H]3C[C@@H](OC(C)=O)[C@]21C

IC50 (HepG2 [5]): 4.2 nM
Structure (SMILES): CC[C@@]1(C)CCC[C@]2(C)[C@H]3C[C@H](OC(C)=O)[C@]4(C)CC(C(C)=O)=CC[C@H]4[C@]3(C)CC[C@@H]12

IC50 (MCF7 [14]): 4.8 nM | IC50 (HCT-116 [4]): 1.3 nM | IC50 (HepG2 [5]): 2.9 nM
Structure (SMILES): CC[C@@]1(C)CCC[C@]2(C)[C@H]3C[C@H](OC(C)=O)[C@]4(C)C=C(C(C)=O)[C@H](OC(C)=O)C[C@H]4[C@]3(C)CC[C@@H]12

More lines, now with the values behind:

Structure (SMILES): CC1=CCC[C@H]2[C@](C)(CC3=CC(=O)C=C(O)C3=O)[C@@H](C)CC[C@]12C
IC50 (P388 [6]): 1.8 nM

Structure (SMILES): C/C1=C/C(=O)O[C@@H]2C[C@@H](CC[C@H](C)/C=C\C=C\CC1)O[C@@](O)([C@@H]1CSC(=O)N1Cc1ccccc1)C2
IC50 (MCF7 [7]): 630 nM | IC50 (MDA-MB-231 [8]): 2720 nM | inhibition [9]: 24% | inhibition (Homo sapiens): 64% | IC50 [10]: 445 nM

Structure (SMILES): CC(=O)CCCC(C)(C)C(=O)CC/C(C)=C/CC[C@@]1(C)CC[C@H]([C@H](C)C(=O)O)OO1 [AIKUPIKOXIDE A]
IC50 (P388 [11]): ≥ 1 µg/mL | IC50 (A549): ≥ 1 µg/mL | IC50 (HT-29): ≥ 1 µg/mL

Structure (SMILES): CCCCCCCCCCCCCCCCCCCCC[C@@H](O)[C@@H](O)[C@H](CO)NC(=O)[C@H](O)CCCCCCCCCCCCCCCC
IC50 (MCF7 [12]): 26800 nM | IC50 (HepG2 [13]): 24700 nM

Structure (SMILES): CO[C@]1([C@@H]2CSC(=O)N2C(=O)c2ccccc2)C[C@H]2C[C@@H](CC[C@H](C)/C=C\C=C\CC/C(C)=C\C(=O)O2)O1
IC50 (MCF7 [7]): 550 nM | IC50 (MDA-MB-231 [8]): 4480 nM | inhibition [9]: 17% | inhibition (Homo sapiens): 53% | IC50 [10]: 834 nM

Structure (SMILES): C=C(CCCC(C)(C)O)C(=O)CC[C@@]1(C)CC[C@@H]([C@H](C)C(=O)OC)OO1 [AIKUPIKOXIDE D]
IC50 (P388 [11]): ≥ 1 µg/mL | IC50 (A549): ≥ 1 µg/mL | IC50 (HT-29): ≥ 1 µg/mL

Structure (SMILES): C/C1=C/C(=O)O[C@@H]2C[C@@H](CC[C@H](C)/C=C\CC1)O[C@@](O)([C@@H]1CSC(=O)N1)C2 [LATRUNCULIN B]
IC50 (HepG2 [13]): 19300 nM

Structure (SMILES): C=C1CCCC(C)(C)C1(O)CCC[C@@]1(C)CC[C@@H]([C@H](C)C(=O)OC)OO1 (stereo partly specified)
IC50 (P388 [11]): ≥ 1 µg/mL | IC50 (A549): ≥ 1 µg/mL | IC50 (HT-29): ≥ 1 µg/mL

Structure (SMILES): CC(=O)OC1=C(C[C@]2(C)[C@@H](C)CC[C@]3(C)C(C)=CCC[C@@H]23)C(=O)C=CC1=O
IC50 (P388 [6]): 30 nM

Structure (SMILES): CC(=O)O[C@@H]1C[C@@H]2[C@@]3(C)CCCC(C)(C)[C@@H]3CC[C@@]2(C)[C@@H]2CC=C3C(=O)OCC3[C@@]12C (stereo partly specified)
IC50 (MCF7 [1]): 20900 nM | IC50 (HepG2 [2]): 15500 nM | IC50 (HCT-116 [3]): 15400 nM

Structure (SMILES): CC(=O)O[C@H]1C[C@@H]2[C@@]3(C)CCCC(C)(C)[C@@H]3CC[C@@]2(C)[C@@H]2CC=C(C(C)=O)[C@@H]3[C@@H](O)C[C@@]132
IC50 (MCF7 [14]): 1.3 nM | IC50 (HCT-116 [4]): 1.7 nM | IC50 (HepG2 [5]): 4.7 nM

Structure (SMILES): COc1cccc2c1C(=O)c1c(O)c3c(c(O)c1C2=O)C[C@@](O)(C(=O)CO)C[C@@H]3O[C@H]1C[C@H](N)[C@H](O)[C@H](C)O1 [DOXORUBICIN HYDROCHLORIDE]
IC50 (P388 [11]): 0.0114 nM | IC50 (HCT-116 [4]): 1.2 nM | IC50 (HepG2 [5]): 1 nM
